Measurements: US9078871B2, “Estrogen receptor modulators and uses thereof” (SERAGON PHARMACEUTICALS, INC., priority 2010, dated 2015)

What was measured:
Assay type in all cases: cell-based
[1] = test system: MCF-7 cells; assay: Breast Cancer Cell Viability Assay (MCF7 Viability Assay); conditions: 5 days' compound exposure, CellTiter-Glo; for IC50: Homo sapiens, MCF7, 120 h
Outline: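 MCF-7 cells, 320 per well in RPMI with 10% FBS and 20 mM HEPES, adhered overnight, then exposed 5 days to an eleven-point semilog dilution (final 0.3–0.000003 μM). CellTiter-Glo luminescence; % viability relative to untreated cells after subtracting cell-free background.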

[2] = target: T1, ER-α (Homo sapiens, UniProt P03372); assay: ER-α In Cell Western Assay (ER1D5); conditions: MCF-7 cells, ER1D5 antibody, 4 or 24 hr post compound addition, read-out: ER In-Cell Western Assay (ER1D5); for Emax: MCF7, Max Response; for DC50: IC50
T1 construct: endogenous in cells; host or cells: MCF-7
T1 sequence (P03372 1-595): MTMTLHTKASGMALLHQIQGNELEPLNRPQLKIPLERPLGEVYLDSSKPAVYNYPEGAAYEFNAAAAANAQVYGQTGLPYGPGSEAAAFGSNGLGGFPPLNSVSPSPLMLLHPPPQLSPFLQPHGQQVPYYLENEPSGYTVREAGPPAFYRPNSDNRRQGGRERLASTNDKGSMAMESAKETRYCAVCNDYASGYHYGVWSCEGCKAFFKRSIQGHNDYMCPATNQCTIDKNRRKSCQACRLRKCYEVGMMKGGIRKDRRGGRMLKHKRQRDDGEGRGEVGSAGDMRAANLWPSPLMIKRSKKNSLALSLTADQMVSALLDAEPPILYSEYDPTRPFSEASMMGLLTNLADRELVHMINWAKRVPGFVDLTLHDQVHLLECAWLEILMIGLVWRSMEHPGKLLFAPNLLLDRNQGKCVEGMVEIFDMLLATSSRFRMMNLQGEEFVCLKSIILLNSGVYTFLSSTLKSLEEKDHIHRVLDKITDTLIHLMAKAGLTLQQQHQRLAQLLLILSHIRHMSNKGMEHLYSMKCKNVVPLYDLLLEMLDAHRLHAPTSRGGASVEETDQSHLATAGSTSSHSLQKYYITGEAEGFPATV
Description: MCF-7 cells were adjusted to a concentration of 200,000 cells per mL in RPMI containing 10% charcoal-stripped FBS and 20 mM HEPES. 16 microliters of the cell suspension (3200 cells) was added to each well of a poly-D-lysine 384 well plate, and the cells were incubated overnight to allow the cells to adhere. The following day an eleven point, serial semilog dilution of each compound was added to the cells in 16 μL at a final concentration ranging from 0.3-0.000003 μM. At 4 or 24 hr post compound addition, the cells were fixed (10% formalin in PBS) for 20 minutes. Cells were permeabalized in PBS 0.1% Triton and blocked with LICOR blocking buffer (50 μl/well, 90′). The wells were then incubated overnight at 4° C. with ER1D5 (Santa Cruz Biotechnology) diluted 1:100 in LICOR blocking buffer/0.1% Tween-20. Wells which were treated with blocking buffer with Tween but no antibody were used as a background control. Wells were washed with 0.1% Tween-20/PBS and then incubated in goat anti-mouse IRDye™ 800CW (LICOR Inc.; 1:1000) and DRAQ5 DNA dye (1:2000 for 2 mM stock) diluted in LICOR blocking buffer containing 0.1% Tween-20 and 0.01% SDS for 60 minutes. Cells were washed (50 μl/well, 5′ each) in 0.1% Tween-20/PBS. Plates were scanned on a LICOR Odyssey infrared imaging system. Integrated intensities in the 800 nm channel and 700 nm channel were measured to determine levels of ER and DNA respectively. Percent ER levels were determined as follows: (Integrated intensity 800 nm sample/integrated intensity 700 nm sample)/(Integrated intensity 800 nm untreated cells/integrated intensity 700 nm untreated cells)×100=% ER levels.

[3] = target: T1, ER-α; assay: ER-α in Cell Western Assay (SP1); conditions: MCF-7 cells, SP1 rabbit monoclonal Ab, 4 or 24 hr post compound addition, read-out: ER In-Cell Western Assay (SP1); for Emax: MCF7, Max Response; for DC50: IC50
Outline: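 MCF-7 cells in charcoal-stripped FBS medium treated with 11-point semilog dilutions (0.3–0.000003 μM final) for 4 or 24 hr, then fixed and immunostained with SP1 anti-ER antibody. ER signal (800 nm) normalized to DRAQ5 DNA signal (700 nm) and expressed as % of untreated cells.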

| IC50 [1] [nM] | Emax [2] [%] | DC50 [2] [nM] | Emax [3] [%] | DC50 [3] [nM] | Compound | MCF7 Viability Assay Max Response [1] |
| --- | --- | --- | --- | --- | --- | --- |
| ≤ 1 | < 40 | > 1 | < 60 | ≤ 1 | CC1=C(c2cccc(O)c2)C(c2ccc(OCCn3ccnc3)cc2)Oc2ccc(O)cc21 (stereo not drawn) [Example 16] | + (+ = a single % value <50%) |
| ≤ 1 | 40 to 65 | ≤ 1 | 60 to 85 | ≤ 1 | CC1=C(c2cccc(O)c2)C(c2ccc(OCCN3CCCCCC3)cc2)Oc2ccc(O)cc21 (stereo not drawn) [Example 17, 2-(4-(2-(Azepan-1-yl)ethoxy)phenyl)-3-(3-hydroxyphenyl)-4-methyl-2H-chromen-6-ol] | + (+ = a single % value <50%) |
| ≤ 1 | ≥ 65 | ≤ 1 | 60 to 85 | ≤ 1 | CC1=C(c2cccc(O)c2)C(c2ccc(OC[C@H](C)N3CCC(C)(C)C3)cc2)Oc2ccc(O)cc21 (stereo partly drawn) [Example 18, 2-(4-((S)-2-(3,3-Dimethylpyrrolidin-1-yl)propoxy)phenyl)-3-(3-hydroxyphenyl)-4-methyl-2H-chromen-6-ol] | ++ (++ = a single % value ≧50%) |
| ≤ 1 | ≥ 65 | ≤ 1 | 60 to 85 | ≤ 1 | CC1=C(c2cccc(O)c2)C(c2ccc(OCCN3CCC(C)(C)C3)cc2)Oc2ccc(O)cc21 (stereo not drawn) [Example 19, 2-(4-(2-(3,3-Dimethylpyrrolidin-1-yl)ethoxy)phenyl)-3-(3-hydroxyphenyl)-4-methyl-2H-chromen-6-ol] | ++ (++ = a single % value ≧50%) |
| ≤ 1 | 40 to 65 | ≤ 1 | 60 to 85 | ≤ 1 | CC1=C(c2cccc(O)c2)C(c2ccc(OCCN3CCC[C@H]3C)cc2)Oc2ccc(O)cc21 (stereo partly drawn) [Example 20, 3-(3-Hydroxyphenyl)-4-methyl-2-(4-(2-((R)-2-methylpyrrolidin-1-yl)ethoxy)phenyl)-2H-chromen-6-ol] | ++ (++ = a single % value ≧50%) |
| ≤ 1 | 40 to 65 | ≤ 1 | 60 to 85 | ≤ 1 | CC1=C(c2cccc(O)c2)C(c2ccc(OCCN3CCC(C)CC3)cc2)Oc2ccc(O)cc21 (stereo not drawn) [Example 21, 3-(3-Hydroxyphenyl)-4-methyl-2-(4-(2-(4-methylpiperidin-1-yl)ethoxy)phenyl)-2H-chromen-6-ol] | ++ (++ = a single % value ≧50%) |
| ≤ 1 | 40 to 65 | > 1 | 60 to 85 | ≤ 1 | CC1=C(c2cccc(O)c2)C(c2ccc(NCCN3CCCC3)cc2)Oc2ccc(O)cc21 (stereo not drawn) [Example 22, 3-(3-Hydroxyphenyl)-4-methyl-2-(4-((2-(pyrrolidin-1-yl)ethyl)amino)phenyl)-2H-chromen-6-ol] | + (+ = a single % value <50%) |
| ≤ 1 | ≥ 65 | ≤ 1 | ≥ 85 | ≤ 1 | CC1=C(c2cccc(O)c2)C(c2ccc(OC[C@H](C)N3CCC[C@H]3C)cc2)Oc2ccc(O)cc21 (stereo partly drawn) [Example 23, 3-(3-Hydroxyphenyl)-4-methyl-2-(4-((S)-2-((R)-2-methylpyrrolidin-1-yl)propoxy)phenyl)-2H-chromen-6-ol] | ++ (++ = a single % value ≧50%) |
| ≤ 1 | 40 to 65 | ≤ 1 | < 60 | ≤ 1 | CC1=C(c2cccc(O)c2)C(c2ccc(OC[C@H](C)N3CCC[C@@H]3C)cc2)Oc2ccc(O)cc21 (stereo partly drawn) [Example 24, 3-(3-Hydroxyphenyl)-4-methyl-2-(4-((S)-2-((S)-2-methylpyrrolidin-1-yl)propoxy)phenyl)-2H-chromen-6-ol] | + (+ = a single % value <50%) |
| ≤ 1 | < 40 | ≤ 1 | < 60 | ≤ 1 | CC1=C(c2cccc(O)c2)C(c2ccc(OCCN3CCCCCCC3)cc2)Oc2ccc(O)cc21 (stereo not drawn) [Example 25, 2-(4-(2-(Azocan-1-yl)ethoxy)phenyl)-3-(3-hydroxyphenyl)-4-methyl-2H-chromen-6-ol] | + (+ = a single % value <50%) |
| ≤ 1 | 40 to 65 | ≤ 1 | 60 to 85 | ≤ 1 | CC1=C(c2cccc(O)c2)C(c2ccc(OCCN3CCCC3)cc2)Oc2cc(O)ccc21 (stereo not drawn) [Example 26, 3-(3-Hydroxyphenyl)-4-methyl-2-(4-(2-(pyrrolidin-1-yl)ethoxy)phenyl)-2H-chromen-7-ol] | ++ (++ = a single % value ≧50%) |
| ≤ 1 | ≥ 65 | ≤ 1 | ≥ 85 | ≤ 1 | CC1=C(c2ccc(O)cc2)C(c2ccc(OC[C@H](C)N3CC[C@@H](C)C3)cc2)Oc2cc(O)ccc21 (stereo partly drawn) [Example 28, 3-(4-Hydroxyphenyl)-4-methyl-2-(4-((S)-2-((R)-3-methylpyrrolidin-1-yl)propoxy)phenyl)-2H-chromen-7-ol] | ++ (++ = a single % value ≧50%) |
| ≤ 1 | ≥ 65 | ≤ 1 | 60 to 85 | ≤ 1 | CC1=C(c2ccccc2)C(c2ccc(OC[C@H](C)N3CC[C@@H](C)C3)cc2)Oc2ccc(O)cc21 (stereo partly drawn) [Example 29, 4-Methyl-2-(4-((S)-2-((R)-3-methylpyrrolidin-1-yl)propoxy)phenyl)-3-phenyl-2H-chromen-6-ol] | ++ (++ = a single % value ≧50%) |
| ≤ 1 | ≥ 65 | ≤ 1 | ≥ 85 | ≤ 1 | CC1=C(c2cccc(F)c2)C(c2ccc(OC[C@H](C)N3CC[C@@H](C)C3)cc2)Oc2ccc(O)cc21 (stereo partly drawn) [Example 32, 3-(3-Fluorophenyl)-4-methyl-2-(4-((S)-2-((R)-3-methylpyrrolidin-1-yl)propoxy)phenyl)-2H-chromen-6-ol] | + (+ = a single % value <50%) |

| Compound | IC50 [1] [nM] | Emax [2] [%] | DC50 [2] [nM] | Emax [3] [%] | DC50 [3] [nM] | MCF7 Viability Assay Max Response [1] |
| --- | --- | --- | --- | --- | --- | --- |
| CC1=C(c2cccc(O)c2)C(c2ccc(OC[C@H](C)N3CC[C@@H](C)C3)cc2)Oc2cc(O)ccc21 (stereo partly drawn) [Example 27, 3-(3-Hydroxyphenyl)-4-methyl-2-(4-((S)-2-((R)-3-methylpyrrolidin-1-yl)propoxy)phenyl)-2H-chromen-7-ol] | ≤ 1 | ≥ 65 | ≤ 1 | ≥ 85 | ≤ 1 | ++ (++ = a single % value ≧50%) |
| CC1=C(c2ccc(O)cc2)C(c2ccc(OC[C@H](C)N3CC[C@@H](C)C3)cc2)Oc2ccc(O)cc21 (stereo partly drawn) [Example 31, 3-(4-Hydroxyphenyl)-4-methyl-2-(4-((S)-2-((R)-3-methylpyrrolidin-1-yl)propoxy)phenyl)-2H-chromen-6-ol] | ≤ 1 | ≥ 65 | ≤ 1 | ≥ 85 | ≤ 1 | ++ (++ = a single % value ≧50%) |
